Experimental data as given in patent US9271978B2 (Zenith Epigenetics Corp., priority 2012, dated 2016).

What was measured:
[1] = target: T1, Brd4 bromodomain 1 (BRD4(1)) (Homo sapiens, UniProt O60885); assay: Inhibition of tetra-acetylated histone H4 binding to Brd4 bromodomain 1 (TR-FRET); parameters: key: Active: Compounds with an IC50 value less than 30 μM were deemed to be active.; Not Active: Compounds with an IC50 value less than 30 μM were deemed to be active; conditions: tetra-acetylated histone H4 peptide, active = IC50 <30 μM
T1 construct: Illustrative results with the first bromodomain of Brd4; made in house; host or cells: E. coli BL21 (DE3)
Procedure: (§1) Proteins were cloned and overexpressed with a N-terminal 6×His tag, then purified by nickel affinity followed by size exclusion chromatography. Briefly, E. coli BL21 (DE3) cells were transformed with a recombinant expression vector encoding N-terminally Nickel affinity tagged bromodomains from Brd2, Brd3, Brd4. Cell cultures were incubated at 37° C. with shaking to the appropriate density and induced overnight with IPTG. The supernatant of lysed cells was loaded onto Ni-IDA column for purification. Eluted protein is pooled, concentrated and further purified by size exclusion chromatography. Fractions representing monomeric protein were pooled, concentrated, aliquoted, and frozen at −80° C. for use in subsequent experiments.
(§2) Binding of tetra-acetylated histone H4 and BET bromodomains was confirmed by a Time Resolved Fluorescence Resonance Energy Transfer (TR-FRET) method. N-terminally His-tagged bromodomains (200 nM) and biotinylated tetra-acetylated histone H4 peptide (25-50 nM, Millipore) were incubated in the presence of Europium Cryptate-labeled streptavidin (Cisbio Cat. #610SAKLB) and XL665-labeled monoclonal anti-His antibody (Cisbio Cat. #61HISXLB) in a white 96 well microtiter plate (Greiner). For inhibition assays, serially diluted test compound was added to these reactions in a 0.2% final concentration of DMSO. Final buffer concentrations were 30 mM HEPES pH 7.4, 30 mM NaCl, 0.3 mM CHAPS, 20 mM phosphate pH 7.0, 320 mM KF, 0.08% BSA). After a 2-h incubation at room temperature, the fluorescence by FRET was measured at 665 and 620 nm by a SynergyH4 plate reader (Biotek). Illustrative results with the first bromodomain of Brd4 and the second bromodomain of Brd2 are shown below. The binding inhibitory activity was shown by a decrease in 665 nm fluorescence relative to 620 nm. IC50 values were determined from a dose response curve.

[2] = target: T2, second bromodomain of Brd2 (BRD2(2)) (Homo sapiens, UniProt P25440); assay: Inhibition of tetra-acetylated histone H4 binding to Brd2 bromodomain 2 (TR-FRET); parameters: key: Active: Compounds with an IC50 value less than 30 μM were deemed to be active.; Not Active: Compounds with an IC50 value less than 30 μM were deemed to be active; conditions: tetra-acetylated histone H4 peptide, active = IC50 <30 μM
T2 construct: made in house; host or cells: E. coli BL21 (DE3)
Procedure: as §1, §2

T2 sequence (P25440 344-453 limits assumed): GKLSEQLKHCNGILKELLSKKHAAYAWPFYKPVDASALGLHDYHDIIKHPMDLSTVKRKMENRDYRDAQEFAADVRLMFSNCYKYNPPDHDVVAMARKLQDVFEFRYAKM

FRET activity (IC50 <30 μM) BRD4(1) [1] | FRET activity (IC50 <30 μM) BRD2(2) [2] | SMILES
Active | Active | Cc1noc(C)c1-c1ccc(=O)n([C@@H](C)c2ccc(F)cc2)c1 (single isomer, unassigned) [Example 110]
Not Active | Active | Cc1noc(C)c1-c1ccc(=O)n(Cc2ncccn2)n1 [Example 3, 6-(3,5-Dimethylisoxazol-4-yl)-2-(pyrimidin-2-ylmethyl)pyridazin-3(2H)-one]
Active | Active | Cc1noc(C)c1-c1cnc(=O)n(Cc2ccccc2)c1 [Example 8, 1-Benzyl-5-(3,5-dimethylisoxazol-4-yl)pyrimidin-2(1H)-one]
Active | Active | Cc1noc(C)c1-c1ccc(=O)n(Cc2ccc(CN(C)C)cc2)c1 [Example 9, 1-(4-((Dimethylamino)methyl)benzyl)-5-(3,5-dimethylisoxazol-4-yl)pyridin-2(1H)-one hydrochloric acid]
Active | Active | Cc1noc(C)c1-c1ccc(=O)n(CC2CCNCC2)c1 [Example 10, 5-(3,5-Dimethylisoxazol-4-yl)-1-(piperidin-4-ylmethyl)pyridin-2(1H)-one hydrochloric acid]
Active | Active | Cc1noc(C)c1Cn1cc(-c2c(C)noc2C)ccc1=O [Example 11, 5-(3,5-Dimethylisoxazol-4-yl)-1-((3,5-dimethylisoxazol-4-yl)methyl)pyridin-2(1H)-one]
Active | Active | Cc1cc(=O)n(Cc2ccccc2)cc1-c1c(C)noc1C [Example 12, 1-Benzyl-5-(3,5-dimethylisoxazol-4-yl)-4-methylpyridin-2(1H)-one]
Active | Active | Cc1noc(C)c1-c1ccc(=O)n(Cc2ccc3nccnc3c2)c1 [Example 18, 5-(3,5-Dimethylisoxazol-4-yl)-1-(quinoxalin-6-ylmethyl)pyridin-2(1H)-one]
Not Active | Active | Cc1oncc1-c1cc(C)c(=O)n(Cc2ccccc2)n1 [Example 20, 2-Benzyl-4-methyl-6-(5-methylisoxazol-4-yl)pyridazin-3(2H)-one]
Active | Active | Cc1noc(C)c1-c1ccc(=O)n(Cc2cccc(Cl)c2)n1 [Example 23, 2-(3-Chlorobenzyl)-6-(3,5-dimethylisoxazol-4-yl)pyridazin-3(2H)-one]
Active | Active | Cc1noc(C)c1-c1ccc(=O)n(Cc2cccc(C(F)(F)F)c2)n1 [Example 31, 6-(3,5-Dimethylisoxazol-4-yl)-2-(3-(trifluoromethyl)benzyl)pyridazin-3(2H)-one]
Not Active | Active | Cc1cc(F)cc(Cn2nc(-c3c(C)noc3C)ccc2=O)c1 [Example 32, 6-(3,5-Dimethylisoxazol-4-yl)-2-(3-fluoro-5-methylbenzyl)pyridazin-3(2H)-one]
Active | Active | COc1ccc(Cn2nc(-c3c(C)noc3C)ccc2=O)cc1 [Example 33, 6-(3,5-Dimethylisoxazol-4-yl)-2-(4-methoxybenzyl)pyridazin-3(2H)-one]
Active | Active | COc1cccc(Cn2nc(-c3c(C)noc3C)ccc2=O)c1 [Example 35, 6-(3,5-Dimethylisoxazol-4-yl)-2-(3-methoxybenzyl)pyridazin-3(2H)-one]
Active | – | Cc1noc(C)c1-c1cc(C(=O)O)c(=O)n(Cc2ccccc2)c1 [Example 229, 1-Benzyl-5-(3,5-dimethylisoxazol-4-yl)-2-oxo-1,2-dihydropyridine-3-carboxylic acid]
Active | – | Cc1noc(C)c1-c1cc(Nc2ccc(C#N)nc2)c(=O)n(Cc2ccccc2)c1 [Example 232, 5-((1-benzyl-5-(3,5-dimethylisoxazol-4-yl)-2-oxo-1,2-dihydropyridin-3-yl)amino)picolinonitrile]

FRET activity (IC50 <30 μM) BRD4(1) [1] | FRET activity (IC50 <30 μM) BRD2(2) [2] | SMILES
Active | – | COc1ccc(Nc2cc(-c3c(C)noc3C)cn(Cc3ccccc3)c2=O)cn1 [Example 234, 1-benzyl-5-(3,5-dimethylisoxazol-4-yl)-3-((6-methoxypyridin-3-yl)amino)pyridin-2(1H)-one]
Active | – | Cc1noc(C)c1-c1cc(Nc2cnccn2)c(=O)n(Cc2ccccc2)c1 [Example 235, 1-benzyl-5-(3,5-dimethylisoxazol-4-yl)-3-(pyrazin-2-ylamino)pyridin-2(1H)-one]
Active | – | Cc1noc(C)c1-c1cc(Nc2cncnc2)c(=O)n(Cc2ccccc2)c1 [Example 236, 1-benzyl-5-(3,5-dimethylisoxazol-4-yl)-3-(pyrimidin-5-ylamino)pyridin-2(1H)-one]
Active | – | Cc1noc(C)c1-c1cc(NC2CCNC2)c(=O)n(Cc2ccccc2)c1 (stereo not shown) [Example 239, 1-benzyl-5-(3,5-dimethylisoxazol-4-yl)-3-(pyrrolidin-3-ylamino)pyridin-2(1H)-one]
Active | – | Cc1noc(C)c1-c1cc(NCC(F)(F)F)c(=O)n(Cc2ccc(Cl)cc2)c1 [Example 243, 1-(4-Chlorobenzyl)-5-(3,5-dimethylisoxazol-4-yl)-3-((2,2,2-trifluoroethyl)amino)pyridin-2(1H)-one]
Active | – | Cc1ccc(Nc2cc(-c3c(C)noc3C)cn(Cc3ccccc3)c2=O)cn1 [Example 245, 1-benzyl-5-(3,5-dimethylisoxazol-4-yl)-3-((6-methylpyridin-3-yl)amino)pyridin-2(1H)-one]
Active | – | Cc1noc(C)c1-c1cc(Nc2cccnc2)c(=O)n(Cc2ccccc2)n1 [Example 248, 2-benzyl-6-(3,5-dimethylisoxazol-4-yl)-4-(pyridin-3-ylamino)pyridazin-3(2H)-one]
Not Active | – | CON(C)C(=O)c1noc(C)c1-c1ccc(=O)n(Cc2ccccc2)c1 [Example 249, 4-(1-benzyl-6-oxo-1,6-dihydropyridin-3-yl)-N-methoxy-N,5-dimethylisoxazole-3-carboxamide]
Active | – | Cc1noc(C)c1-c1cc(N)c(=O)n(Cc2ccncc2Cl)c1 [Example 253]
Active | – | Cc1noc(C)c1-c1cc(N)c(=O)n(Cc2cccc3c2OCO3)c1 [Example 257, 3-amino-1-(benzo[d][1,3]dioxol-4-ylmethyl)-5-(3,5-dimethylisoxazol-4-yl)pyridin-2(1H)-one]
Not Active | – | COC(=O)c1onc(C)c1-c1ccc(=O)n(Cc2ccc(Cl)cc2)c1 [Example 259, methyl 4-(1-(4-chlorobenzyl)-6-oxo-1,6-dihydropyridin-3-yl)-3-methylisoxazole-5-carboxylate]
Not Active | – | Cc1noc(C(=O)O)c1-c1ccc(=O)n(Cc2ccc(Cl)cc2)c1 [Example 260, 4-(1-(4-chlorobenzyl)-6-oxo-1,6-dihydropyridin-3-yl)-3-methylisoxazole-5-carboxylic acid]
Not Active | – | CNC(=O)c1onc(C)c1-c1ccc(=O)n(Cc2ccc(Cl)cc2)c1 [Example 265, 4-(1-(4-chlorobenzyl)-6-oxo-1,6-dihydropyridin-3-yl)-N,3-dimethylisoxazole-5-carboxamide]
Not Active | – | Cc1noc(C)c1-c1cc(CN)c(=O)n(Cc2ccccc2)c1 [Example 266, 3-(Aminomethyl)-1-benzyl-5-(3,5-dimethylisoxazol-4-yl)pyridin-2(1H)-one]
Not Active | – | O=C1CC(c2ccc(=O)n(Cc3ccccc3)c2)CN1 (stereo not shown) [Example 268, 1-Benzyl-5-(5-oxopyrrolidin-3-yl)pyridin-2(1H)-one]
Not Active | – | Cc1noc(C)c1-c1cc(N)c(=O)n(C(C)c2ccc(C#N)cc2)c1 (stereo not shown) [Example 269, 4-(1-(3-amino-5-(3,5-dimethylisoxazol-4-yl)-2-oxopyridin-1(2H)-yl)ethyl)benzonitrile]
